Values of other authors, collected in paper PMC11255275, “Structural insights into the triple agonism at GLP-1R, GIPR and GCGR manifested by retatrutide” (Cell Discovery, 2024).

Key:
GLP-1R = conditions: among GLP-1R, GIPR and GCGR; general statement in introduction; cited from earlier work
Excerpt: (§1) The most successful treatments currently available include glucagon-like peptide-1 (GLP-1) receptor agonists (GLP-1RAs), exemplified by semaglutide (approved in 2017, $19.9 billion sales in 2023)[3] and tirzepatide (approved in 2022, $5.3 billion sales in 2023)[4].

GIPR = conditions: in addition to GLP-1R; cited from earlier work
Excerpt: as §1

Substance | receptor activation (GLP-1R) | receptor activation (GIPR)
semaglutide | solely activates GLP-1R | –
tirzepatide | – | also activates glucose-dependent insulinotropic polypeptide (GIP) receptor (GIPR)
